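Protocol summary: plate cells (96-well), add compound at 5 concentrations, incubate 48 h, interpolate endpoints linearly. GI50 = concentration required for 50% inhibition of growth.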 Calls of active or inactive are those of the source. Cut-off read from the data, not from the text of the source: active = GI50 up to about 1.1 µM and inactive = higher.
How the values were obtained:
Assay in all cases: growth of human tumour cells (NCI), 48 h
[1] = test system: MOLT-4
[2] = test system: UACC-257
[3] = test system: EKVX
[4] = test system: KM12
[5] = test system: NCI-H23
[6] = test system: SK-MEL-5
[7] = test system: A549
[8] = test system: SNB-19
[9] = test system: 786-0
[10] = test system: M14
[11] = test system: PC-3
[12] = test system: COLO 205
[13] = test system: MDA-MB-231
[14] = test system: NCI-H522
[15] = test system: SW-620
[16] = test system: NCI-H460
[17] = test system: OVCAR-8
[18] = test system: SK-OV-3
[19] = test system: UACC-62
[20] = test system: Hs-578T

| Structure (SMILES) | GI50 [1] | GI50 [2] | GI50 [3] | GI50 [4] | GI50 [5] | GI50 [6] | GI50 [7] | GI50 [8] | GI50 [9] | GI50 [10] | GI50 [11] | GI50 [12] | GI50 [13] | GI50 [14] | GI50 [15] | GI50 [16] | GI50 [17] | GI50 [18] | GI50 [19] | GI50 [20] |
| --- | --- | --- | --- | --- | --- | --- | --- | --- | --- | --- | --- | --- | --- | --- | --- | --- | --- | --- | --- | --- |
| CC(C)(C)CNC(=O)NCn1cc(-c2ccccc2)nn1 | > 100 µM (inactive) | > 100 µM (inactive) | > 100 µM (inactive) | > 100 µM (inactive) | > 100 µM (inactive) | > 100 µM (inactive) | > 100 µM (inactive) | > 100 µM (inactive) | > 100 µM (inactive) | > 100 µM (inactive) | > 100 µM (inactive) | > 100 µM (inactive) | > 100 µM (inactive) | > 100 µM (inactive) | > 100 µM (inactive) | > 100 µM (inactive) | > 100 µM (inactive) | – | – | – |
| O=C(OCCCl)C1OC(n2cc(F)c(=O)[nH]c2=O)CC1O (stereo not given) | > 100 µM (inactive) | > 100 µM (inactive) | > 100 µM (inactive) | > 100 µM (inactive) | > 100 µM (inactive) | > 100 µM (inactive) | > 100 µM (inactive) | > 100 µM (inactive) | > 100 µM (inactive) | > 100 µM (inactive) | – | > 100 µM (inactive) | – | > 100 µM (inactive) | > 100 µM (inactive) | 92 µM (inactive) | > 100 µM (inactive) | > 100 µM (inactive) | > 100 µM (inactive) | – |
| CC(C)=CC(C)C(C(O)CCC1(c2ccoc2)OCCO1)S(=O)(=O)c1ccccc1 (stereo not given) | – | > 100 µM (inactive) | > 100 µM (inactive) | > 100 µM (inactive) | > 100 µM (inactive) | > 100 µM (inactive) | > 100 µM (inactive) | > 100 µM (inactive) | > 100 µM (inactive) | > 100 µM (inactive) | > 100 µM (inactive) | > 100 µM (inactive) | > 100 µM (inactive) | > 100 µM (inactive) | > 100 µM (inactive) | > 100 µM (inactive) | > 100 µM (inactive) | > 100 µM (inactive) | – | – |
| CCCC(=O)Nc1cc(/C=C/C(=O)N2CC(CCl)c3c2cc([N+](=O)[O-])c2ccccc32)n(C)c1 (stereo not given) | 3.01 µM (inactive) | > 100 µM (inactive) | – | – | 1 µM (active) | > 47.3 µM (inactive) | 8.89 µM (inactive) | > 100 µM (inactive) | > 60.8 µM (inactive) | > 100 µM (inactive) | 3.73 µM (inactive) | > 100 µM (inactive) | > 100 µM (inactive) | > 100 µM (inactive) | > 100 µM (inactive) | 7.57 µM (inactive) | 16.5 µM (inactive) | > 100 µM (inactive) | 8.38 µM (inactive) | – |
| Cc1ccc(NCC(=O)N2CC(=O)Nc3ccccc32)cc1 | > 100 µM (inactive) | > 100 µM (inactive) | > 100 µM (inactive) | > 100 µM (inactive) | > 100 µM (inactive) | > 100 µM (inactive) | > 100 µM (inactive) | > 100 µM (inactive) | > 100 µM (inactive) | > 100 µM (inactive) | – | > 100 µM (inactive) | – | > 100 µM (inactive) | > 100 µM (inactive) | > 100 µM (inactive) | > 100 µM (inactive) | > 100 µM (inactive) | > 100 µM (inactive) | – |
| Cc1cc(C)nc(NS(=O)(=O)c2ccc(Nc3c4ccc(Cl)cc4nc4c(C(=O)NCCN(C)C)cccc34)cc2)n1 | > 100 µM (inactive) | > 100 µM (inactive) | > 100 µM (inactive) | > 100 µM (inactive) | > 100 µM (inactive) | > 100 µM (inactive) | > 100 µM (inactive) | > 100 µM (inactive) | > 100 µM (inactive) | > 100 µM (inactive) | – | > 100 µM (inactive) | – | > 100 µM (inactive) | > 100 µM (inactive) | > 100 µM (inactive) | > 100 µM (inactive) | > 100 µM (inactive) | > 100 µM (inactive) | – |
| CN1CCC2(CC1)/C(=N/C1CCCCC1)NC(=O)N2c1ccccc1 | > 100 µM (inactive) | > 100 µM (inactive) | > 100 µM (inactive) | > 100 µM (inactive) | > 100 µM (inactive) | > 100 µM (inactive) | > 100 µM (inactive) | > 100 µM (inactive) | > 100 µM (inactive) | > 100 µM (inactive) | – | > 100 µM (inactive) | > 100 µM (inactive) | – | > 100 µM (inactive) | > 100 µM (inactive) | > 100 µM (inactive) | > 100 µM (inactive) | > 100 µM (inactive) | > 100 µM (inactive) |
| CN(C)CCNC(=O)c1ccc(C(=O)NCCN(C)C)c2nc3ccccc3cc12 | 0.226 µM (active) | 1.62 µM (inactive) | 1.81 µM (inactive) | 0.792 µM (active) | 1.71 µM (inactive) | 1.49 µM (inactive) | 0.45 µM (active) | 1.2 µM (inactive) | 0.692 µM (active) | 1.39 µM (inactive) | – | 0.469 µM (active) | – | 0.47 µM (active) | 0.361 µM (active) | 0.384 µM (active) | 0.571 µM (active) | 0.916 µM (active) | 1.15 µM (inactive) | – |
| NCCCCCS(=O)(=O)O | > 100 µM (inactive) | > 100 µM (inactive) | > 100 µM (inactive) | > 100 µM (inactive) | > 100 µM (inactive) | > 100 µM (inactive) | > 100 µM (inactive) | > 100 µM (inactive) | > 100 µM (inactive) | > 100 µM (inactive) | – | > 100 µM (inactive) | – | > 100 µM (inactive) | > 100 µM (inactive) | > 100 µM (inactive) | > 100 µM (inactive) | > 100 µM (inactive) | > 100 µM (inactive) | – |
| COc1ccc(-c2nc(SCC(=O)NNC(=S)Nc3ccccc3)[nH]c2-c2ccc(OC)cc2)cc1 | 3.46 µM (inactive) | 20.8 µM (inactive) | 28.8 µM (inactive) | 24.9 µM (inactive) | 21.4 µM (inactive) | 14.9 µM (inactive) | 31.5 µM (inactive) | 21.8 µM (inactive) | 23.7 µM (inactive) | 17.7 µM (inactive) | 25.8 µM (inactive) | 15.3 µM (inactive) | 27.2 µM (inactive) | 22.7 µM (inactive) | 26.9 µM (inactive) | 14.8 µM (inactive) | 39.9 µM (inactive) | 27.2 µM (inactive) | 16.6 µM (inactive) | – |
| O=C1C2c3[nH]c4ccccc4c3C3CCCCCC3C2C(=O)N1c1ccccc1 (stereo not given) | 16 µM (inactive) | 30.7 µM (inactive) | > 68.1 µM (inactive) | > 100 µM (inactive) | > 49.8 µM (inactive) | > 100 µM (inactive) | 34.4 µM (inactive) | 25.8 µM (inactive) | 44.9 µM (inactive) | 15.9 µM (inactive) | – | > 25.8 µM (inactive) | – | 37.7 µM (inactive) | 24.8 µM (inactive) | 11.3 µM (inactive) | 11.8 µM (inactive) | 15.9 µM (inactive) | > 63.7 µM (inactive) | – |
| Cn1c2ccccc2c(=O)c2c([N+](=O)[O-])ccc(NCCN)c21 | 2.06 µM (inactive) | 13.6 µM (inactive) | 16.5 µM (inactive) | 6.43 µM (inactive) | 10.7 µM (inactive) | 13.2 µM (inactive) | 11.9 µM (inactive) | 14.1 µM (inactive) | 6.93 µM (inactive) | 14 µM (inactive) | – | 5.36 µM (inactive) | – | 6.92 µM (inactive) | 4.55 µM (inactive) | 6.92 µM (inactive) | 7.19 µM (inactive) | 15.7 µM (inactive) | 14.9 µM (inactive) | – |
| CC(=O)OCc1cc(OC(C)=O)cnc1COC(C)=O | > 100 µM (inactive) | > 100 µM (inactive) | > 100 µM (inactive) | > 100 µM (inactive) | > 100 µM (inactive) | > 100 µM (inactive) | > 100 µM (inactive) | > 100 µM (inactive) | > 100 µM (inactive) | > 100 µM (inactive) | – | > 100 µM (inactive) | – | > 100 µM (inactive) | > 100 µM (inactive) | > 100 µM (inactive) | > 100 µM (inactive) | > 100 µM (inactive) | > 100 µM (inactive) | – |
| O=C1CC(c2ccccc2)C2(C(=O)NC(=S)NC2=O)C(c2ccccc2)C1 (stereo not given) | 27.3 µM (inactive) | > 75 µM (inactive) | > 75 µM (inactive) | > 75 µM (inactive) | > 75 µM (inactive) | > 75 µM (inactive) | – | > 75 µM (inactive) | > 75 µM (inactive) | > 75 µM (inactive) | > 75 µM (inactive) | > 75 µM (inactive) | > 75 µM (inactive) | > 75 µM (inactive) | > 75 µM (inactive) | > 75 µM (inactive) | > 75 µM (inactive) | – | > 75 µM (inactive) | – |
| CCCCCCCCCCCC[N+]12CC[N+](CCN)(CC1)CC2 | > 100 µM (inactive) | > 100 µM (inactive) | > 100 µM (inactive) | 23.7 µM (inactive) | 51.6 µM (inactive) | > 100 µM (inactive) | > 100 µM (inactive) | 20.8 µM (inactive) | > 100 µM (inactive) | > 100 µM (inactive) | – | 39.3 µM (inactive) | – | 86.5 µM (inactive) | > 100 µM (inactive) | 29.2 µM (inactive) | > 100 µM (inactive) | > 100 µM (inactive) | 56.9 µM (inactive) | – |
| CCOc1ccc(/C=C/c2cc(OC)c(OC)c(OC)c2)cc1 | 1.37 µM (inactive) | 0.658 µM (active) | > 100 µM (inactive) | 0.411 µM (active) | 2.92 µM (inactive) | 0.556 µM (active) | 1.08 µM (active) | 4.36 µM (inactive) | 3.05 µM (inactive) | 0.841 µM (active) | – | 0.635 µM (active) | – | 0.429 µM (active) | 0.791 µM (active) | 1.05 µM (active) | 3.9 µM (inactive) | 1.4 µM (inactive) | 0.385 µM (active) | – |

— ChEMBL document CHEMBL1201862, “PubChem BioAssay data set” (2004)
